Test [1] has as its target T1, BCDIN3D (Homo sapiens, UniProt Q7Z5W3).
T1 sequence (Q7Z5W3 1-292): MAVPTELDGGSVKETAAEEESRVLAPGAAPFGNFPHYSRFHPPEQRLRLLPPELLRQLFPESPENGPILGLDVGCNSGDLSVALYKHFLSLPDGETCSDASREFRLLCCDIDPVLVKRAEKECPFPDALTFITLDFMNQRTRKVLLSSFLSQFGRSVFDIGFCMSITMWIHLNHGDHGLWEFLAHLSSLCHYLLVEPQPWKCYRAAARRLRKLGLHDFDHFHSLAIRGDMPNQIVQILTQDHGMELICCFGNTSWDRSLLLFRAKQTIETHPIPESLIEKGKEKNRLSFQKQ
As to the kind of experiment: BCDIN3D InCellPulse thermal stability assay in transfected A549 cells. The class given is cell-based. To be noted: transiently transfected A549 cells, heat shock 58° C. 15 min. A digest of the protocol:
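Thermal stabilisation read-out: after a 15 min 58 °C heat shock, ePL-tagged BCDIN3D in transiently transfected A549 cells (1500/well) was quantified by enzyme-fragment complementation luminescence. Compounds were pre-incubated with cells 1 h at 37 °C, 0.6% DMSO final.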

Test [2] concerns the target T1, BCDIN3D. The experiment in a line: BCDIN3D IC50 RFMS (RapidFire) assay with mini-helix. Conditions: mini-helix substrate 0.2 μM, SAM 6 μM, 25 nM enzyme. The class given is biochemical. A digest of the protocol: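 SAH formation was measured by RapidFire mass spectrometry with D4- and 13C10-SAH internal standards after TCA quench. Substrates 6 μM SAM and 0.2 μM mini-helix reacted 1 h at 37 °C with 25 nM enzyme, which had been preincubated 10 min with compound (1% DMSO) in Tris pH 8.0 buffer with DTT, EDTA, BSA.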

One may read the IC50 as the concentration that inhibits the measured activity by half. Turning to `Cn1ncc2c(NC3CCOCC3)nc(NC[C@H](N)c3ccccc3)nc21` [Compound 4.69, N6-[(2R)-2-amino-2-phenyl-ethyl]-1-methyl-N4-tetrahydropyran-4-yl-pyrazolo[3,4-d]pyrimidine-4,6-diamine], the IC50 in test [1] was determined as 3140 nM; in test [2] it was 851 nM.

As for `Cn1ncc2c(NC(C)(C)CO)nc(NC[C@H](N)c3ccccc3)nc21` [Compound 4.71, 2-[[6-[[(2R)-2-amino-2-phenyl-ethyl]amino]-1-methyl-pyrazolo[3,4-d]pyrimidin-4-yl]amino]-2-methyl-propan-1-ol], the IC50 in test [1] worked out at 1200 nM; in test [2] it was 1400 nM.

Take `Cn1ncc2c(NCC(C)(C)C)nc(NC[C@H](N)c3ccccc3)nc21` [Compound 4.72, N6-[(2R)-2-amino-2-phenyl-ethyl]-N4-(2,2-dimethylpropyl)-1-methyl-pyrazolo[3,4-d]pyrimidine-4,6-diamine]: the values for the IC50 in test [1] and in test [2] were 318 nM and 154 nM, respectively.

Take `Cn1ncc2c(NCC(F)F)nc(NC[C@H](N)c3ccccc3)nc21` [Compound 4.73, N6-[(2R)-2-amino-2-phenyl-ethyl]-N4-(2,2-difluoroethyl)-1-methyl-pyrazolo[3,4-d]pyrimidine-4,6-diamine]: the IC50 is 412 nM in test [1] and 528 nM in test [2].

Turning to `Cn1ncc2c(NCC(C)(F)F)nc(NC[C@H](N)c3ccccc3)nc21` [Compound 4.74, N6-[(2R)-2-amino-2-phenyl-ethyl]-N4-(2,2-difluoropropyl)-1-methyl-pyrazolo[3,4-d]pyrimidine-4,6-diamine], the IC50 came to 341 nM in test [1] and 252 nM in test [2].

For `Cn1ncc2c(NC(C)(C)C(F)(F)F)nc(NC[C@H](N)c3ccccc3)nc21` [Compound 4.75, N6-[(2R)-2-amino-2-phenyl-ethyl]-1-methyl-N4-(2,2,2-trifluoro-1,1-dimethyl-ethyl)pyrazolo[3,4-d]pyrimidine-4,6-diamine], the results for the IC50 in test [1] and in test [2] were 711 nM and 240 nM, respectively.

Regarding `C[C@H](Nc1nc(NC[C@H](N)c2ccccc2)nc2c1cnn2C)C(F)(F)F` [Compound 4.76, N6-[(2R)-2-amino-2-phenyl-ethyl]-1-methyl-N4-[(1S)-2,2,2-trifluoro-1-methyl-ethyl]pyrazolo[3,4-d]pyrimidine-4,6-diamine], the IC50 in test [1] was 232 nM; in test [2], 136 nM.

As to `Cn1ncc2c(NC3(C)CC3)nc(NC[C@H](N)c3ccccc3)nc21` [Compound 4.77, N6-[(2R)-2-amino-2-phenyl-ethyl]-1-methyl-N4-(1-methylcyclopropyl)pyrazolo[3,4-d]pyrimidine-4,6-diamine], the IC50 is 1970 nM in test [1] and 2770 nM in test [2].

As to `Cn1ncc2c(NC3(C(F)(F)F)CC3)nc(NC[C@H](N)c3ccccc3)nc21` [Compound 4.78, N6-[(2R)-2-amino-2-phenyl-ethyl]-1-methyl-N4-[1-(trifluoromethyl)cyclopropyl]pyrazolo[3,4-d]pyrimidine-4,6-diamine], the IC50 was determined as 379 nM in test [1] and 769 nM in test [2].

Regarding `Cn1ncc2c(NC3(C(C)(C)C)CC3)nc(NC[C@H](N)c3ccccc3)nc21` [Compound 4.79, N6-[(2R)-2-amino-2-phenyl-ethyl]-N4-(1-tert-butylcyclopropyl)-1-methyl-pyrazolo[3,4-d]pyrimidine-4,6-diamine], the 50% inhibitory concentration (IC50) in test [1] stood at 3200 nM; in test [2], 2300 nM.

Regarding `Cn1ncc2c(NC3CC34CC4)nc(NC[C@H](N)c3ccccc3)nc21` (stereo partly drawn) [Compound 4.80, N6-[(2R)-2-amino-2-phenyl-ethyl]-1-methyl-N4-spiro[2.2]pentan-2-yl-pyrazolo[3,4-d]pyrimidine-4,6-diamine], the results for the IC50 in test [1] and in test [2] were 518 nM and 656 nM, respectively.

In the case of `Cn1ncc2c(NC3CC(CO)(CCl)C3)nc(NCC(N)c3ccccc3)nc21` (centres unmarked) [Compound 4.81, [3-[[6-[(2-amino-2-phenyl-ethyl)amino]-1-methyl-pyrazolo[3,4-d]pyrimidin-4-yl]amino]-1-(chloromethyl)cyclobutyl]methanol], the IC50 turned out to be 625 nM in test [1] and 583 nM in test [2].

Take `Cn1ncc2c(NC3CC4(C3)CC(F)(F)C4)nc(NCC(N)c3ccccc3)nc21` (centres unmarked) [Compound 4.82, N6-(2-amino-2-phenyl-ethyl)-N4-(2,2-difluorospiro[3.3]heptan-6-yl)-1-methyl-pyrazolo[3,4-d]pyrimidine-4,6-diamine]: the results for the IC50 in test [1] and in test [2] were 40.8 nM and 25.6 nM, respectively.

With `Cn1ncc2c(NC3CCC3)nc(NC[C@H](N)c3ccccc3)nc21` [Compound 4.83, N6-[(2R)-2-amino-2-phenyl-ethyl]-N4-cyclobutyl-1-methyl-pyrazolo[3,4-d]pyrimidine-4,6-diamine], the values for the IC50 in test [1] and in test [2] were 94.4 nM and 75.5 nM, respectively.

As to `Cn1ncc2c(NC3(C)CCC3)nc(NC[C@H](N)c3ccccc3)nc21` [Compound 4.84, N6-[(2R)-2-amino-2-phenyl-ethyl]-1-methyl-N4-(1-methylcyclobutyl)pyrazolo[3,4-d]pyrimidine-4,6-diamine], the IC50 worked out at 125 nM in test [1] and 137 nM in test [2].

`Cn1ncc2c(NC3CC(F)(F)C3)nc(NC[C@H](N)c3ccccc3)nc21` [Compound 4.85, N6-[(2R)-2-amino-2-phenyl-ethyl]-N4-(3,3-difluorocyclobutyl)-1-methyl-pyrazolo[3,4-d]pyrimidine-4,6-diamine]: the IC50 in test [1] was 267 nM; in test [2] it was 172 nM.

Consider `Cn1ncc2c(NC3(C)CC(F)(F)C3)nc(NC[C@H](N)c3ccccc3)nc21` [Compound 4.86, N6-[(2R)-2-amino-2-phenyl-ethyl]-N4-(3,3-difluoro-1-methyl-cyclobutyl)-1-methyl-pyrazolo[3,4-d]pyrimidine-4,6-diamine], for which the results for the IC50 in test [1] and in test [2] were 1450 nM and 1600 nM, respectively.

In the case of `CC1CC(Nc2nc(NC[C@H](N)c3ccccc3)nc3c2cnn3C)C1` (stereo partly drawn) [Compound 4.87, N6-[(2R)-2-amino-2-phenyl-ethyl]-1-methyl-N4-(3-methylcyclobutyl)pyrazolo[3,4-d]pyrimidine-4,6-diamine], the IC50 in test [1] is 70.9 nM; in test [2] it was 50.7 nM.

Consider `Cn1ncc2c(NC3CC(F)C3)nc(NC[C@H](N)c3ccccc3)nc21` (stereo partly drawn) [Compound 4.88, N6-[(2R)-2-amino-2-phenyl-ethyl]-N4-(3-fluorocyclobutyl)-1-methyl-pyrazolo[3,4-d]pyrimidine-4,6-diamine], for which the IC50 in test [1] worked out at 148 nM; in test [2], 112 nM.

For the molecule `Cn1ncc2c(N[C@H]3C[C@H](F)C3)nc(NC[C@H](N)c3ccccc3)nc21` [Compound 4.89, N6-[(2R)-2-amino-2-phenyl-ethyl]-N4-(3-fluorocyclobutyl)-1-methyl-pyrazolo[3,4-d]pyrimidine-4,6-diamine], the results for the IC50 in test [1] and in test [2] were 223 nM and 109 nM, respectively.

Consider `Cn1ncc2c(N[C@H]3C[C@@H](F)C3)nc(NC[C@H](N)c3ccccc3)nc21` [Compound 4.90, N6-[(2R)-2-amino-2-phenyl-ethyl]-N4-(3-fluorocyclobutyl)-1-methyl-pyrazolo[3,4-d]pyrimidine-4,6-diamine], for which the values for the IC50 in test [1] and in test [2] were 989 nM and 576 nM, respectively.

Turning to `Cn1ncc2c(NC3CC(C#N)C3)nc(NC[C@H](N)c3ccccc3)nc21` (stereo partly drawn) [Compound 4.91, 3-[[6-[[(2R)-2-amino-2-phenyl-ethyl]amino]-1-methyl-pyrazolo[3,4-d]pyrimidin-4-yl]amino]cyclobutanecarbonitrile], the values for the IC50 in test [1] and in test [2] were 263 nM and 129 nM, respectively.

The values are drawn from patent publication US20220370453A1 (Storm Therapeutics Ltd, priority 2019, published 2022).
